“And” between values parts separate entries of the source, which are not always exact repeats. Equal entries are not always repeated. Where two headings read alike, the source gives them in different places.
Columns and labels:
[1] = Biotransformation in vitro, microsomal stability (rat); type: in vitro ADME
Protocol: The metabolism of the compounds was studied in commercially available microsomal fractions derived from human and rat hepatocytes. Test compounds (0.5 μM) were incubated with microsomal fractions in the presence of NADPH during 30 min in a shaker at 37°C. Reactions were stopped at 0, 5, 10, 15, and 30 min by adding acetonitrile. After proteins precipitation, the remaining amount of the test compound in the supernatant was detected with high performance liquid chromatography tandem-mass spectrometry (HPLC-MS/MS) method using Agilent 1260 liquid chromatograph (Agilent Technologies, Santa Clara, CA, USA) and a QTRAP6500 triple quadrupole mass spectrometer with a TurboIonSpray electro-spraying module (ABSciex, Foster City, CA, USA) ([15]). Incubation was performed twice, with at least 2 measurements for each replicate (n ≥ 3). The half-life (T1/2), the clearance in vitro (CLint) and the remaining amount of substance (% of initial quantity) were calculated.

hERG potassium channels = target: T1, hERG potassium channels (Homo sapiens, UniProt Q12809); test: Cardiac toxicity, Predictor hERG fluorescence polarization binding
T1 construct: purchased Invitrogen Corporation, Carlsbad, CA, USA
T1 sequence (Q12809 whole entry): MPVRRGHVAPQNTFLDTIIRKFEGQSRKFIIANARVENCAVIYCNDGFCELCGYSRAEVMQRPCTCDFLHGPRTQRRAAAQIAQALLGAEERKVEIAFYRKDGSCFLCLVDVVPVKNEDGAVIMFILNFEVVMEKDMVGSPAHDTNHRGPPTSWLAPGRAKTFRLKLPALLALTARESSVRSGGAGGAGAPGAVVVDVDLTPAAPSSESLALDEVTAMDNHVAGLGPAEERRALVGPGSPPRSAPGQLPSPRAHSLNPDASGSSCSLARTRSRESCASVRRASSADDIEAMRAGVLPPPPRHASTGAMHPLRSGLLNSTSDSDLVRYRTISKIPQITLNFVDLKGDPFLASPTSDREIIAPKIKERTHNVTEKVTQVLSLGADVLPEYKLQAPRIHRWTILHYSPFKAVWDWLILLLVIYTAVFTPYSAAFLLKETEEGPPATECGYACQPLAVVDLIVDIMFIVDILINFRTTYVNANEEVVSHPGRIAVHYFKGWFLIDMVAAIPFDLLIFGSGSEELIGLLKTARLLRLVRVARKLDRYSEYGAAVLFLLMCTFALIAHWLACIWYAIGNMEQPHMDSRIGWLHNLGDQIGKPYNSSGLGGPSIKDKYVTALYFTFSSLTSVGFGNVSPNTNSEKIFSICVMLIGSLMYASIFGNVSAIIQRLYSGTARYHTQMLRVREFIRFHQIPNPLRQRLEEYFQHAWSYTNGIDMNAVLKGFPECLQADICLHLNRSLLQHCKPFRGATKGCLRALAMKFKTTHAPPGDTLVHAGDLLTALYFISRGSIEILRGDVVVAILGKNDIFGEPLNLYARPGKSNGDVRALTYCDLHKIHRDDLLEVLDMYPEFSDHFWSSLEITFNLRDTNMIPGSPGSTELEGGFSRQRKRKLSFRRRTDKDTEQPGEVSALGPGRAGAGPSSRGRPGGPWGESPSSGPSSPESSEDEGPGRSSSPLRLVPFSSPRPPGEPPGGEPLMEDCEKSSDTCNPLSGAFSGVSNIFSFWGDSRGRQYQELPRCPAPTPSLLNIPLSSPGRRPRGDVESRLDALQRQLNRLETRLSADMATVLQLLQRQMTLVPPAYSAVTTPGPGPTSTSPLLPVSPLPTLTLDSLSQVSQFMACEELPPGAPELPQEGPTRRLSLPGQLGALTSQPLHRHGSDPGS
Protocol: Cardiac toxicity was evaluated by estimating the influence of each substance on hERG potassium channels using the in vitro test system Invitrogen® PredictorTM hERG (Invitrogen Corporation, Carlsbad, CA, USA), containing Predictor hERG membrane preparations, fluorescent tracer stock solution and an assay buffer solution. Experimental procedures were conducted in accordance with the PredictorTM hERG test system's manufacturer instructions. Assays were performed in 384-well microplates. Each well contained 5 μL aliquot of each concentration of test compound, 10 μL of (2X) membrane preparation and 5 μL of working tracer solution. The cumulative reaction volume was 20 μl with 1% of DMSO ([19]). All procedures were performed at 4 replicates for each concentration. The plate was allowed to incubate at room temperature for at least 1 h prior to fluorescence polarization measurements performed with a microplate reader Infinite M1000 PRO (Tecan).

[2] = test system: intact fasted female Wistar rats; test: Hypoglycemic action in intact rats after single oral administration; type: in vivo, rat; details: 0.1–1 mg/kg oral
Protocol: Blood glucose levels were evaluated in the peripheral blood (from the tail vein) of intact fasted (6 h) female Wistar rats using a glucometer Contour TS (Bayer, Germany) at 60, 120, and 180 min after single oral administration of each ZB-09 analogs (in doses of 0.1, 1, and 10 mg/kg). The female animals were used because of their advantages in toxicological studies shown by several authors ([23]).

[3] = test system: rats with streptozotocin-nicotinamide (STZ-NA) induced T2D; test: Hypoglycemic activity after single oral administration in T2D rat model; type: in vivo; details: single oral 1 mg/kg, fasted STZ-NA T2D rats, over a 3 h period
Protocol: Procedures were performed in 40 female Wistar rats weighing 250–280 g. Streptozotocin-nicotinamide-induced rat model of T2D was used ([24], [25]). Briefly, streptozotocin (Sigma, St. Louis, MO, USA) was administered i.p. to overnight fasted rats (65 mg/kg in 100 mmol/l citrate buffer, Ph 4.5). Nicotinamide (Sigma, St. Louis, MO, USA) (230 mg/kg) dissolved in saline was administered i.p. 15 min before streptozotocin. STZ-NA T2D had been confirmed 72 h after in rats with blood glucose levels in a range 9–14 mmol/l measured in fasting (6 h) conditions. […] […] For OGTT rats received an oral dose of […] glucose dissolved in saline; blood glucose levels were monitored every 30 min for 2 h after glucose administration. Sitagliptin dose was chosen in accordance with published data ([26]).

[4] = Pharmacokinetics in vivo after single oral or intravenous administration; design: species or system rat; details: rats, 10 mg/kg; for Vd: read-out: Vz
Protocol: The pharmacokinetics of ZB-16 in a dose of 10 mg/kg after single oral or intravenous administration was studied in 6 male Wistar rats weighing 250–280 g. The blood from the tail vein (200 μL) was collected before and at 0, 0.25, 0.5, 1, 2, 4, 8, 12, and 24 h after ZB-16 administration. The blood concentrations of the test compounds in animals were evaluated using HPLC-MS/MS. Basic pharmacokinetic parameters were calculated using a non-model method and WinNonlin Professional 6.0 (Pharsight Corporation, Mountain View, CA, USA) based on the experimental concentration-time data obtained on each animal.

[5] = male, Wistar, rat, plasma, iv, i.v. injection, Mean ± SD (n = 3)
[6] = male, Wistar, rat, plasma, iv, i.v. injection, individual rat
[7] = male, Wistar, rat, plasma, po, oral administration, Mean ± SD (n = 3)
[8] = male, Wistar, rat, plasma, po, oral administration, individual rat
[9] = oral administration, individual rat

O=S1(=O)COc2cc(-c3ccc(OCC4CCN(c5ncc(Cl)cn5)CC4)c(F)c3)ccc21 [ZB-16]
ER ([1]; Rat microsomal fraction): 0.58 | CLh ([1]; Rat microsomal fraction, in mL/min/kg (unit assumed)): 32.09 | microsomal CLint at 0.5 μM ([1]; liver microsomal fraction): 42.8 µL/min/mg | half-life at 0.5 μM ([1]; liver microsomal fraction, 0.5 μM, NADPH, read-out: t1/2, min): 64.8 min | Average polarization mP (n = 4) (hERG potassium channels; 1 μM): 264 mP | Unbound hERG % (hERG potassium channels; 1 μM): 89% | Average polarization mP (n = 4) (hERG potassium channels; 10 μM): 244 mP | Unbound hERG % (hERG potassium channels; 10 μM): 77% | blood glucose levels after single oral administration [2]: significant decrease | decrease of blood glucose levels [3]: 24% | AUC(0-t) ([4]; male, Wistar, plasma, iv, i.v. injection, individual rat, read-out: AUC 0-t): 244 ng·h/mL | Tmax ([4]; male, Wistar, plasma, oral administration, individual rat): 4 h | half-life ([4]; male, Wistar, rat, plasma, read-out: half-life): > 720 min | bioavailability ([4]; male, Wistar, rat, plasma, oral vs i.v., read-out: absolute bioavailability): 8% | AUC(0-inf) [4, 5]: 339 ± 97.2 ng·h/mL | clearance [4, 5]: 100 mL/min/kg | k el [4, 5]: 1.39e-05 s⁻¹ | AUC(0-t) ([4]; male, Wistar, rat, plasma, iv, i.v. injection, Mean ± SD (n = 3), read-out: AUC 0-t): 218 ± 30.4 ng·h/mL | C0 ([4]; male, Wistar, rat, plasma, iv, i.v. injection, Mean ± SD (n = 3), read-out: C0): 32 ± 8.7 ng/mL | MRT last ([4]; male, Wistar, rat, plasma, iv, i.v. injection, Mean ± SD (n = 3), read-out: MRT last): 9 ± 1 h | Vd [4, 5]: 123 ± 18.1 L/kg | half-life ([4]; male, Wistar, rat, plasma, iv, i.v. injection, Mean ± SD (n = 3), read-out: t1/2 (converted)): 900 ± 348 min | AUC(0-inf) [4, 6]: 441 ng·h/mL | clearance [4, 6]: 83.3 mL/min/kg | k el [4, 6]: 8.33e-06 s⁻¹ | AUC(0-t) ([4]; male, Wistar, rat, plasma, iv, i.v. injection, individual rat, read-out: AUC 0-t): 226 ng·h/mL | C0 ([4]; male, Wistar, rat, plasma, iv, i.v. injection, individual rat, read-out: C0): 29 ng/mL | MRT last ([4]; male, Wistar, rat, plasma, iv, i.v. injection, individual rat, read-out: MRT last): 10 h | Vd [4, 6]: 139 L/kg | half-life ([4]; male, Wistar, rat, plasma, iv, i.v. injection, individual rat, read-out: t1/2 (converted)): 1260 min | AUC(0-inf) [4, 7]: 119 ± 11.9 ng·h/mL | k el [4, 7]: 1.67e-05 s⁻¹ | AUC(0-t) ([4]; male, Wistar, rat, plasma, po, oral administration, Mean ± SD (n = 3), read-out: AUC 0-t): 85 ± 17.6 ng·h/mL | Cmax ([4]; male, Wistar, rat, plasma, po, oral administration, Mean ± SD (n = 3), read-out: Cmax): 6 ± 1.2 ng/mL | MRT last ([4]; male, Wistar, rat, plasma, po, oral administration, Mean ± SD (n = 3), read-out: MRT last): 9 ± 1 h | half-life ([4]; male, Wistar, rat, plasma, po, oral administration, Mean ± SD (n = 3), read-out: t1/2 (converted)): 780 ± 312 min | AUC(0-inf) [4, 8]: 124 ng·h/mL | k el [4, 8]: 1.11e-05 s⁻¹ | AUC(0-t) ([4]; male, Wistar, rat, plasma, po, oral administration, individual rat, read-out: AUC 0-t): 69 ng·h/mL | Cmax ([4]; male, Wistar, rat, plasma, po, oral administration, individual rat, read-out: Cmax): 4 ng/mL | MRT last ([4]; male, Wistar, rat, plasma, po, oral administration, individual rat, read-out: MRT last): 10 h | half-life ([4]; male, Wistar, rat, plasma, po, oral administration, individual rat, read-out: t1/2 (converted)): 1140 min | AUC 0−∞ ([4]; i.v. injection, individual rat): 247 ng·h/mL and 329 ng·h/mL | AUC(0-t) ([4]; i.v. injection, individual rat): 184 ng·h/mL | C0 ([4]; i.v. injection, individual rat): 26 ng/mL and 42 ng/mL | CL ([4]; i.v. injection, individual rat): 8 L/h/kg | Kel ([4]; i.v. injection, individual rat): 0.06 h⁻¹ | MRT last ([4]; i.v. injection, individual rat): 8 h | Vz ([4]; i.v. injection, individual rat): 127 L/kg and 104 L/kg | t1/2 ([4]; i.v. injection, individual rat): 11 h and 12 h | AUC 0−∞ [4, 9]: 128 ng·h/mL and 105 ng·h/mL | AUC(0-t) [4, 9]: 104 ng·h/mL and 83 ng·h/mL | Cmax [4, 9]: 7 ng/mL | Kel [4, 9]: 0.07 h⁻¹ | t1/2 [4, 9]: 10 H
